Data: the METLIN SMRT retention time set (Domingo-Almenara et al. 2019)

Assay: gradient 5% acetonitrile 3 min, to 50% in 2 min, to 85% in 15 min, held 3 min, 100 µL/min
Conditions: column: Zorbax Extend-C18 2.1 x 50 mm; eluents: water / acetonitrile, 0.1% formic acid
In short: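 In both positive and negative ionization mode, a quadrupole time-of-flight mass spectrometer coupled to HPLC analyzed pure standards run in mixtures of ~100 molecules. The Zorbax Extend-C18 column (2.1 × 50 mm, 1.8 μm) was operated at 100 μL/min with water and acetonitrile, each containing 0.1% formic acid. The dead volume was 40 μL and the dwell volume 900 μL. Retention time came from adduct peaks that were computationally picked and individually inspected by hand.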

RP-LC retention time [s] | Compound
641 | Cn1cnc2c(C(=O)NCC3CCCO3)nn(-c3ccccc3)c2c1=O (stereo unspecified)
616 | O=C(Nc1ccc(F)cc1)N1CCC(CCOc2ccncc2)CC1
878 | O=C(NC(c1ccccc1)c1nnc(N2CCCCC2)o1)C1CCCCC1 (stereo unspecified)
728 | COc1ccc(-c2cn3c(CC(=O)Nc4ccccc4Cl)csc3n2)cc1OC
1020 | Fc1cccc(Nc2ncnc3c2cnn3-c2ccccc2)c1
720 | CCC(C(=O)Nc1ccc(OC)c(OC)c1)n1cnc2nc3c(cc2c1=O)CCCC3 (stereo unspecified)
1300 | Cc1ccc(-c2nc(-c3cccc(-c4ccnn4C)c3)no2)cc1C
994 | CCCn1ccc2sc(C)c(C(=O)NC(C)c3ccc(F)cc3)c2c1=O (stereo unspecified)
1090 | Cc1ccc(-c2noc(-c3nc(-c4cccnc4)no3)n2)cc1
612 | CO[C@H]1C(=O)N(C(C)C)[C@H]1C1CCN(C(=O)c2cnn(C)c2)CC1
838 | Cc1ccc(Cl)cc1NC(=O)N1CCN(c2ccc(=O)n(-c3ccccc3)n2)CC1
1120 | Cc1ccccc1Nc1c(-c2cc(Br)ccc2F)nc2ccc(Br)cn12
1020 | CCOc1ccccc1-c1nc(-c2cn(Cc3ccc(F)cc3)nn2)no1
678 | CCCCn1c(CN2CCOCC2)nc2cc(NC(=O)c3cccs3)ccc21
967 | Cc1ccc(C)c(N2CCN(c3ccnc(SCC(=O)Nc4ccc(Cl)cc4)n3)CC2)c1
1170 | Cc1nc(C)c(C(=O)Nc2nc(-c3ccc4c(c3)CCCC4)cs2)s1
709 | Cc1cc(C)nc(Nc2nc(-c3ccccc3)c3ccccc3n2)n1
792 | CCCNC(=O)CCc1nc2ccccc2n(CC(=O)Nc2ccc(C(=O)OCC)cc2)c1=O
831 | Cc1ccc(CN2CCN(CC(=O)Nc3nc(-c4ccc(C)c(C)c4)cs3)CC2)cc1
1070 | Cc1ccc(Cn2cccc2C(=O)C(=O)NCc2ccco2)cc1C
758 | O=C(c1ccco1)N1CCN(C(=O)C2CN(S(=O)(=O)C3CC3)CC23CCCCC3)CC1 (stereo unspecified)
730 | CS(=O)(=O)N1CCC(OC2CCN(C(=O)NCc3ccc(F)cc3)CC2)CC1
1080 | O=S(=O)(NCc1nc(-c2cccc(-c3csc(C4CC4)n3)c2)no1)c1ccccc1

RP-LC retention time [s] | Compound
548 | O=C(c1ccc(N2CCCC2)nn1)N1CCN(c2ncccn2)CC1
977 | CCOC(=O)C1CCN(c2nnc(-c3nnc(CC)o3)c3ccccc23)CC1
737 | COC(=O)CNC(=O)N1CCCC1c1ccccc1C (stereo unspecified)
659 | Cc1nc(CCNC(=O)[C@H]2CCCN2C(=O)c2ccccc2Cl)cs1
824 | CCOc1cc(C(=O)NC(C(=O)Nc2nc3ccccc3[nH]2)C(C)C)cc(OCC)c1OCC (stereo unspecified)
864 | CCCN(CCC)C(=O)C1COC2(CCCCC2)N1C(=O)c1c(OC)cccc1OC (stereo unspecified)
752 | CC1=C(c2ccc(F)cc2)S(=O)(=O)N=C1N1CCCN(C(=O)c2ccoc2)CC1
845 | CCc1ccc(NC(=O)Cn2c(C)nc3onc(C)c3c2=O)cc1
665 | COc1cc(NC(=O)N2CCN(Cc3ccccc3)c3ncccc32)cc(OC)c1OC
1250 | CCC(=O)N(CC)c1nc(-c2ccc(Br)cc2)cs1
651 | O=C(NCCCn1c(-c2ccncc2)nc2cccnc21)Nc1cccc(F)c1
926 | COCCn1cc2c3c(cccc31)CN(C(=O)Nc1cc(OC)cc(OC)c1)CC2
943 | COc1cccc(-c2noc(Cc3nnc(-c4ccc(F)cc4)o3)n2)c1OC
666 | Cc1ccc(NC(=O)NCCn2c(-c3ccncc3)nc3cccnc32)cc1Cl
728 | CCC(C)C(=O)NCCc1c[nH]c2cc(OC)ccc12 (stereo unspecified)
588 | O=C(C(=O)N1CCN(C2CCCCC2)CC1)c1ccc[nH]1
588 | CCC(=O)Nc1cccc(-c2nnc3n2CCC3)c1
640 | COc1ccc(NC(=O)NCCc2cn(C)c3ncccc23)c(OC)c1
963 | Cc1nc(Nc2ccc(F)cn2)sc1C(=O)NCCC1=CCCCC1
796 | O=C(NCc1noc(C2CCCC2)n1)c1ccccc1
1040 | COc1ccc(Cl)cc1NC(=O)Cn1cccc1-c1nnc(C2CCC2)o1
855 | CCOC(=O)c1sc(NC(=O)c2ccncc2)nc1-c1ccccc1
632 | O=S(=O)(Cc1cccc(F)c1)N1CCC(C2CCNC2)CC1 (stereo unspecified)

RP-LC retention time [s] | Compound
762 | COCCOc1ccc2c(n1)CCN(C(=O)NCCC(C)C)C2
721 | Cc1noc(C)c1CC(=O)N1CC(n2cc(COc3ccc(F)cc3)nn2)C1
886 | COc1ccc(NC(=O)c2cc(C)n3nccc3n2)c(C)c1
827 | CC(C)NC(=O)C1CCCN(C(=O)Nc2ccc(S(=O)(=O)N3CCCCCC3)s2)C1 (stereo unspecified)
968 | COc1cccc(-c2ccc(=O)n(Cc3nc(-c4ccccc4)no3)n2)c1
1090 | Cc1cc(S(=O)(=O)[C@H]2CS(=O)(=O)C[C@@H]2N2CCN(c3cccc(Cl)c3)CC2)ccc1F
1090 | COC1CCC12CCN(S(=O)(=O)c1ccc(C)c(F)c1)CC2 (stereo unspecified)
1260 | Cc1ccc(Sc2nccnc2N2CCC(C(=O)Nc3cccc(Br)c3)CC2)cc1
690 | Cc1ccc(C)c(NC(=O)Nc2ccc(-c3cn4ccc(C)nc4n3)cc2)c1
709 | Cc1cccc2nnc(N3CCC(C(=O)NCC4CCCCC4)CC3)n12
657 | CCOC(=O)N1CCN(C(=O)CSc2ncnc3c2nnn3CC)CC1
889 | CSc1ccc(CNC(=O)c2nnc(-c3ccc(S(=O)(=O)N(C)C)cc3)o2)cc1
728 | O=C(Nc1ccc2c(c1)OCCO2)N1C[C@@H]2CN(S(=O)(=O)c3ccccc3)C[C@H](C1)O2
974 | O=C(C1=NN(Cc2ccccc2)c2ccccc2S1(=O)=O)N1CCCCCC1
1060 | COc1ccc(-c2noc(CN3C(=O)COc4cc(Cl)ccc43)n2)cc1
573 | O=C(CCc1csc(NC(=O)c2ccc[nH]c2=O)n1)NCC1CCCO1 (stereo unspecified)
803 | Cc1cc([N+](=O)[O-])ccc1NC(=O)c1ccc(-n2cnnn2)cc1
982 | CCOc1ccc(C2Cn3nnc(-c4nc(-c5cccnc5)no4)c3CO2)cc1 (stereo unspecified)
792 | O=C(c1ccc(Cl)cc1)N1CCc2sc(C(=O)N3CCCC3)cc2C1
649 | Nc1cc(=O)nc(SCC(=O)NC2CCCCC2)n1-c1cccc(C(F)(F)F)c1
688 | Cc1cc2[nH]c(C(=O)NC(C)c3ccccc3)c(CN3CCOCC3)c2s1 (stereo unspecified)
654 | Cc1cc(C(=O)N(C)C2CCc3nnc(C)n3CC2)c(C)n1Cc1ccco1 (stereo unspecified)
711 | CNC(=O)C1CCCN(c2nc3ncn(CC(=O)Nc4cccc(C(C)C)c4)c(=O)c3s2)C1 (stereo unspecified)

RP-LC retention time [s] | Compound
618 | Cc1nnc(C2CCCCCN2C(=O)c2cnco2)o1 (stereo unspecified)
646 | Cc1cc(NCCCC(=O)NC2CCCCC2)n2nc(-c3cccnc3)nc2n1
964 | CN1CCN(S(=O)(=O)c2ccc3nn(Cc4cccc(F)c4)c(=O)n3c2)CC1
774 | O=C(c1csc(Nc2ccc(OC(F)F)cc2)n1)N1CCN(c2ncccn2)CC1
795 | O=C(Nc1ccc2c(c1)OCCO2)c1cn(-c2cc(N3CCCC3)ncn2)cn1
954 | CCOCCCNC(=O)N1CCCCCC1c1ccc(C)cc1 (stereo unspecified)
692 | COc1ccc(OC)c(CNC(=O)c2cc3c(=O)n(C)ccc3n2C)c1
688 | O=C(NCCC1=CCCCC1)c1ccc2ncnc(N3CCCC3)c2c1
675 | Cc1nc(CNC(=O)C2CCN(C(=O)Nc3ccc(C)c(C)c3)CC2)cs1
652 | O=C(Cc1nc(-c2ccccn2)n[nH]1)Nc1ccc(F)cc1F
1200 | Cc1ccc(Oc2nccnc2SCC(=O)Nc2cc(C)cc(C)c2)cc1
807 | CCn1c(-c2ccccc2)cc(C(=O)NC)c1C
940 | CCOc1ccc(-c2noc(Cn3c(=O)n(-c4ccc(F)cc4)c(=O)c4sccc43)n2)cc1OC
618 | CCN(CCCNS(=O)(=O)c1ccc2c(c1)CCCC(=O)N2)c1ccccc1
546 | O=C(Nc1ncn[nH]1)C1CCC1
877 | O=C(c1cn(-c2cc(N3CCSCC3)ncn2)cn1)N1CCN(c2ccccc2)CC1
1040 | CCOC(=O)CNC(=O)Nc1ccc(-c2nc(-c3cc(C)ccc3C)co2)cc1
659 | O=S(=O)(Nc1ccc(F)cc1)c1cccn2cnnc12
934 | O=S(=O)(c1ccc(F)cc1)N1CCCC(c2nnnn2-c2ccccc2)C1 (stereo unspecified)
1090 | CC(C)CCNS(=O)(=O)c1ccc(-c2cc(C(F)(F)F)on2)o1
604 | CS(=O)(=O)N1CCCc2cc(C(=O)N3CCC(C(N)=O)CC3)ccc21

Compound | RP-LC retention time [s]
Cn1cc(C(=O)N2CCOCC2)c2cccnc21 | 601
